Results published in patent US20240189309A1, “TYK2 INHIBITORS AND USES THEREOF” (Sudo Biosciences Limited, priority 2021, published 2024).

Assays:
[1] = target: T1, TYK2 Pseudokinase (JH2) (Homo sapiens, UniProt P29597); test: HEK-Blue IFNα/β reporter assay (SEAP) for profiling TYK2 pseudokinase (JH2) inhibition; format: cell-based; details: HEK-Blue IFNα/β cells, 1 ng/mL human recombinant IFNα, read-out: IFNα (TYK2 inhibitory activity, IC50)
Description: (§1) Example B-1: HEK-Blue™ IL-23 and IFNα/β Reporter Assays for Profiling TYK2 Pseudokinase (JH2) Inhibition
(§2) HEK-Blue™ IL-23 and IFNα/β cells with a stably-integrated cytokine receptor and STAT3 or STAT1 express STAT-inducible secreted embryonic alkaline phosphatase (SEAP) reporter gene upon cytokine stimulation. These cells are plated in DMEM (Gibco) containing 10% heat-inactivated FBS (Gibco) and 100 U/mL PenStrep (Gibco) at 37° C. under 5% CO2 conditions for 20-22 hours. The cells are then pretreated with serially diluted test compounds for 60 min prior to stimulation with either 10 ng/mL human recombinant IL-23 (Miltenyl Biotech) or 1 ng/mL human recombinant IFNα (InvivoGen) for 22-24 hours for IL-23 or 16-18 h for IFNα. SEAP induction is measured using the QUANTI Blue™ Solution (InvivoGen) according to the manufacturer's instructions.

[2] = target: T2, TYK2-JH1 (Homo sapiens, UniProt P29597); test: HTRF-based selectivity assay, TYK2 catalytic domain; format: biochemical; details: kinase domain (JH1), ATP 20 μM
T2 construct: recombinant purified His or GST-tagged catalytic domain for each enzyme; made in house
T2 sequence (P29597 897-1176 limits assumed): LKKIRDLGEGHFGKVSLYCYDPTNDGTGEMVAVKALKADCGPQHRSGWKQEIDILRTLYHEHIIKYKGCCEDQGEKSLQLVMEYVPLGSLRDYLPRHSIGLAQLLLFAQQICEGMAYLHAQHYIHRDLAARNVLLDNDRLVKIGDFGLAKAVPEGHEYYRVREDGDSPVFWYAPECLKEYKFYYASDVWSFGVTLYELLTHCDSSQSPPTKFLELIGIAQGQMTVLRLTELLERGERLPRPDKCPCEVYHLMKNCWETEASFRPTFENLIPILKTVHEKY
Description: (§3) Example B-2: HTRF-Based Selectivity Assay
(§4) The ability of compounds to inhibit the activity of JAK1, JAK2, JAK3 and TYK2 is measured using a recombinant purified His or GST-tagged catalytic domain for each enzyme (JAK1, JAK2 and TYK2 are generated in-house; JAK3 was purchased from Carna biosciences, Cat #08-046) in an HTRF format biochemical assay. The reactions employs a commercial peptide substrate from Cisbio (Cat #62TK0PEC). The basic assay protocol is as follows: first, 2.5 μL of diluted compounds (4×) in DMSO are dispensed into a 384-well Optiplate. Next, 2.5 μL of enzyme (final concentrations for enzymes are: TYK2—700 ng/mL, JAK1—80.6 ng/mL, JAK2—2.1 ng/mL and JAK3—171.8 ng/mL) is added and incubated at RT for 5-20 min. Finally, 5 μl of mixture of 2×ATP [Final concentration 20 μM for TYK2, 21.43 μM for JAK1, 14.7 μM for JAK2 and 2.12 μM for JAK3]+2× Substrate [Final concentration 217 nM for TYK2, 454.7 nM for JAK1, 200 nM for JAK2 and 257.4 nM for JAK3] is added to 384 well Optiplate. Composition of Kinase assay buffer used in the assay is as follows: HEPES 50 mM, EGTA 1 mM, MgCl2 10 mM, DTT 2 mM, Tween-20 0.01% and water. Then the plates are shaken and then incubated at 26.5° C. for 60 min.

[3] = target: T3, JAK1-JH1 (Homo sapiens, UniProt P23458); test: HTRF-based selectivity assay, JAK1 catalytic domain; format: biochemical; details: kinase domain (JH1), ATP 21.43 μM
T3 construct: recombinant purified His or GST-tagged catalytic domain for each enzyme; made in house
T3 sequence (P23458 875-1153 limits assumed): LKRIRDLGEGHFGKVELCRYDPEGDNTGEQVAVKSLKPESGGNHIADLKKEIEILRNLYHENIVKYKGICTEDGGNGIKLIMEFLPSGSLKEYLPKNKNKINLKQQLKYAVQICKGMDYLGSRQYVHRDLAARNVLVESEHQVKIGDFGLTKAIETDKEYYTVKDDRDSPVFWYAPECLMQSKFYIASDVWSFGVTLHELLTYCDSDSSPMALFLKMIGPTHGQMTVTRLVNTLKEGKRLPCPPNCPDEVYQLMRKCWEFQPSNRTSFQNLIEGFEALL
Description: as §3, §4

[4] = target: T4, JAK2-JH1 (Homo sapiens, UniProt O60674); test: HTRF-based selectivity assay, JAK2 catalytic domain; format: biochemical; details: kinase domain (JH1), ATP 14.7 μM
T4 construct: recombinant purified His or GST-tagged catalytic domain for each enzyme; made in house
T4 sequence (O60674 849-1124 limits assumed): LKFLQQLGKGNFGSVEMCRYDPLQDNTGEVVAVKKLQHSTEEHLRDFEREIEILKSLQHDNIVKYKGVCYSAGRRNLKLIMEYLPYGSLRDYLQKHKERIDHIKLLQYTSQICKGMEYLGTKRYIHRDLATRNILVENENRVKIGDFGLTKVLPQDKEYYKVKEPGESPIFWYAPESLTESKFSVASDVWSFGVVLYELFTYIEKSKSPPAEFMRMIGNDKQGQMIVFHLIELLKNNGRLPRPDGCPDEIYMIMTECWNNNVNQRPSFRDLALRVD
Description: as §3, §4

[5] = target: T5, JAK3-JH1 (Homo sapiens, UniProt P52333); test: HTRF-based selectivity assay, JAK3 catalytic domain; format: biochemical; details: kinase domain (JH1), ATP 2.12 μM
T5 construct: recombinant purified His or GST-tagged catalytic domain for each enzyme; purchased Carna biosciences 08-046
T5 sequence (P52333 822-1111 limits assumed): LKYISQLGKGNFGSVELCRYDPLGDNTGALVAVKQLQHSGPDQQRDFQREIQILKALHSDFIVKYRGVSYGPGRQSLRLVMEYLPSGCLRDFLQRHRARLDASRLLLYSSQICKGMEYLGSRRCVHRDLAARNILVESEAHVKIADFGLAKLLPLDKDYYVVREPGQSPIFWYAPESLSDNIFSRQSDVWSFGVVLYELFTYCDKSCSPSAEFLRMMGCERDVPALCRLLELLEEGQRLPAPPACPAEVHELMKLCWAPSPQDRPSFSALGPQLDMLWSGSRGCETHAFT
Description: as §3, §4

[6] = test system: HEK-Blue™ IL-2 reporter cells; test: HEK-Blue IL-2 reporter assay (SEAP) for determining selectivity; format: cell-based; details: HEK-Blue IL-2 cells, 4 ng/mL human recombinant IL-2, SEAP reporter
Description: (§5) Example B-3: HEK-Blue™ IL-2 and IFNγ Reporter Assays for Determining Selectivity
(§6) HEK-Blue™ IL-2 and IFNγ reporter cells with a stably-integrated cytokine receptor and STAT5 or STAT1 express STAT-inducible secreted embryonic alkaline phosphatase (SEAP) reporter gene upon cytokine stimulation. These cells were plated in DMEM (Gibco) containing 10% heat-inactivated FBS (Gibco) and 100 U/mL PenStrep (Gibco) at 37° C. under 5% CO2 conditions for 20-22 hours. The cells were then pre-treated with serially diluted test compounds for 60 min prior to stimulation with either 4 ng/mL human recombinant IL-2 (Miltenyl Biotech) or 50 ng/mL human recombinant IFNγ (InvivoGen) for 24 hours. SEAP induction was measured using the QUANTI-Blue™ Solution (InvivoGen) according to the manufacturer's instructions.

[7] = target: T1, TYK2 Pseudokinase (JH2); test: HEK-Blue IL-23 reporter assay (SEAP) for profiling TYK2 pseudokinase (JH2) inhibition; format: cell-based; parameters: HEK-Blue™ IL-23 and IFNα/β cells with a stably-integrated cytokine receptor and STAT3 or STAT1; endogenous in cells; host or cells: HEK-Blue IL-23 and HEK-Blue IFNα/β cells; details: HEK-Blue IL-23 cells, 10 ng/mL human recombinant IL-23, SEAP reporter; read-out: IL23 (TYK2 inhibitory activity, IC50)
Description: as §1, §2

[8] = test system: HEK-Blue™ IFNγ reporter cells; test: HEK-Blue IFNγ reporter assay (SEAP) for determining selectivity; format: cell-based; details: 50 ng/mL human recombinant IFNγ, read-out: IFN-γ (SEAP selectivity, IC50)
Description: as §5, §6

T1 sequence (P29597 whole entry): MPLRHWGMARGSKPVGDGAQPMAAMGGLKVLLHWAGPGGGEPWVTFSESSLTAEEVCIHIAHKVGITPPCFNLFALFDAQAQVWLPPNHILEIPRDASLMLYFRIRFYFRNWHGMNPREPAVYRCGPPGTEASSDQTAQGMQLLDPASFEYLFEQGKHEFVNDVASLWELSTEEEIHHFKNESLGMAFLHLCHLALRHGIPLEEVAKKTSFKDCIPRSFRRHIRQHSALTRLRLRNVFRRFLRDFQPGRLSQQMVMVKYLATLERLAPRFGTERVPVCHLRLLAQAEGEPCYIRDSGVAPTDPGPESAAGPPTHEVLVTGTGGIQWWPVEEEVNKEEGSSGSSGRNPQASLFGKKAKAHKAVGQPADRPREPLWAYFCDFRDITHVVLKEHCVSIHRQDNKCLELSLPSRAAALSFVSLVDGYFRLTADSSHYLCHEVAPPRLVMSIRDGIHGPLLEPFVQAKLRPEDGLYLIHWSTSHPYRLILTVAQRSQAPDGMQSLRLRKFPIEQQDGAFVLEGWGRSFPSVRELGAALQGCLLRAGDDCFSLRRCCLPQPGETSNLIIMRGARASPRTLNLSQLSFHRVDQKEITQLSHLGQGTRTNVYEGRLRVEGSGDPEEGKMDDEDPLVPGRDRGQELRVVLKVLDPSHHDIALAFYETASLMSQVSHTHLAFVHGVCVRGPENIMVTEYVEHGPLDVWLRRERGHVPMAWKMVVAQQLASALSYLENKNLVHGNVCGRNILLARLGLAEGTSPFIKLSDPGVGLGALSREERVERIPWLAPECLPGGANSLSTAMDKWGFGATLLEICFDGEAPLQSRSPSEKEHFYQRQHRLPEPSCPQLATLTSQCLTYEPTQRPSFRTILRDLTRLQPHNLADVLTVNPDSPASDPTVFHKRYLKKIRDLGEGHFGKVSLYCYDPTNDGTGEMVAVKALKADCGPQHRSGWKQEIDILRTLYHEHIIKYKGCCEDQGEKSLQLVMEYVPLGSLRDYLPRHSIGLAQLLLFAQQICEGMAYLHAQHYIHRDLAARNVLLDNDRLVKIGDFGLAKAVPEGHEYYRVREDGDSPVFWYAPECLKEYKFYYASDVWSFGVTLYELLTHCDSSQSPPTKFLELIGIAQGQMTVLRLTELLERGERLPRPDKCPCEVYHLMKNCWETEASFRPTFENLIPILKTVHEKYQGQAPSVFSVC

Structure (SMILES) | IC50 [1] | IC50 [2] | IC50 [3] | IC50 [4] | IC50 [5] | IC50 [7] | IC50 [6] | IC50 [8]
[2H]C([2H])([2H])NC(=O)c1cnc(NC(=O)C2CC2)cc1Nc1cccc2c1N(C)Cc1nnnn1-2 [Compound 11, 6-(cyclopropanecarboxamido)-N-(methyl-d3)-4-((5-methyl-4,5-dihydrotetrazolo[1,5-a]quinoxalin-6-yl)amino)nicotinamide] | 0.03 to 0.3 µM | > 1 µM | > 1 µM | > 1 µM | > 1 µM | < 0.03 µM | > 1 µM | > 1 µM
[2H]C([2H])([2H])NC(=O)c1nnc(NC(=O)C2CC2)cc1Nc1nccc2c1N(C)Cc1nn(C)c(=O)n1-2 [Compound 20, 6-(cyclopropanecarboxamido)-4-((2,5-dimethyl-1-oxo-1,2,4,5-tetrahydropyrido[3,4-e][1,2,4]triazolo[4,3-a]pyrazin-6-yl)amino)-N-(methyl-d3)pyridazine-3-carboxamide] | < 0.03 µM | > 1 µM | > 1 µM | > 1 µM | > 1 µM | < 0.03 µM | > 1 µM | –
CNC(=O)c1nnc(Nc2ccc(F)cn2)cc1Nc1cccc2c1OCc1conc1-2 [Compound 2, 4-((4H-chromeno[4,3-c]isoxazol-6-yl)amino)-6-((5-fluoropyridin-2-yl)amino)-N-methylpyridazine-3-carboxamide] | > 1 µM | > 1 µM | > 1 µM | > 1 µM | > 1 µM | < 0.03 µM | > 1 µM | 0.3 to 1 µM
CNC(=O)c1cnc(Nc2ccc(F)cn2)cc1Nc1cccc2c1OCCn1nnnc1-2 [Compound 15, 4-((5,6-dihydrobenzo[f]tetrazolo[1,5-d][1,4]oxazepin-8-yl)amino)-6-((5-fluoropyridin-2-yl)amino)-N-methylnicotinamide] | 0.3 to 1 µM | > 1 µM | > 1 µM | > 1 µM | > 1 µM | 0.03 to 0.3 µM | – | –

Now from value to compound, other results behind:

IC50 [1] | IC50 [2] | IC50 [3] | IC50 [4] | IC50 [5] | IC50 [7] | Structure (SMILES) | IC50 [6] | IC50 [8]
0.03 to 0.3 µM | > 1 µM | > 1 µM | > 1 µM | > 1 µM | < 0.03 µM | [2H]C([2H])([2H])NC(=O)c1nnc(NC(=O)C2CC2)cc1Nc1cc(F)cc2c1N(C)Cc1nn(C)c(=O)n1-2 [Compound 18, 6-(cyclopropanecarboxamido)-4-((8-fluoro-2,5-dimethyl-1-oxo-1,2,4,5-tetrahydro-[1,2,4]triazolo[4,3-a]quinoxalin-6-yl)amino)-N-(methyl-d3)pyridazine-3-carboxamide] | > 1 µM | –
< 0.03 µM | > 1 µM | > 1 µM | > 1 µM | > 1 µM | < 0.03 µM | [2H]C([2H])([2H])NC(=O)c1cnc(NC(=O)C2CC2)cc1Nc1cc(F)cc2c1N(C)Cc1nn(C)c(=O)n1-2 [Compound 16, 6-(cyclopropanecarboxamido)-4-((8-fluoro-2,5-dimethyl-1-oxo-1,2,4,5-tetrahydro-[1,2,4]triazolo[4,3-a]quinoxalin-6-yl)amino)-N-(methyl-d3)nicotinamide] | > 1 µM | > 1 µM
< 0.03 µM | > 1 µM | > 1 µM | > 1 µM | > 1 µM | < 0.03 µM | [2H]C([2H])([2H])NC(=O)c1nnc(NC(=O)C2CC2)cc1Nc1cccc2c1N(C)Cc1nn(C)c(=O)n1-2 [Compound 17, 6-(cyclopropanecarboxamido)-4-((2,5-dimethyl-1-oxo-1,2,4,5-tetrahydro-[1,2,4]triazolo[4,3-a]quinoxalin-6-yl)amino)-N-(methyl-d3)pyridazine-3-carboxamide] | > 1 µM | 0.03 to 0.3 µM
